How the values were obtained:
Type in all cases: cell-based, human
PrSC cells [1] = experiment: Losartan: proliferation of PrSC cells in 10% FCS (Example 8); conditions: 5 days
Protocol: PrSC cells were plated out on a 12-well dish at 20,000 cells per well, and cultured for 5 days in a phenol red-free F12 culture medium containing 10% (V/V) FCS and losartan at various concentrations (0, 0.1, 1.0, and 10 μM). Then the number of cells was counted. The group with no additive was used as the control group. Each group contained four wells (n=4).

PrSC cells [2] = experiment: Losartan: proliferation of TNFα-stimulated PrSC cells (Example 9); conditions: 5 days
Protocol: PrSC cells were plated out on a 12-well dish at 25,000 cells per well, and cultured for 5 days in a phenol red-free F12 culture medium supplemented with 0.1% (W/V) BSA containing TNFα (1 ng/mL) and/or losartan (10 μM). Then the number of cells was counted. The group with no additive was used as the control group. Each group contained four wells (n=4).

[3] = system: MAPK phosphorylation in PC-3 cells; experiment: MAPK phosphorylation in PC-3 cells cultured in PrSC conditioned media (Western blotting)
Protocol: Stromal cells (PrSC) were cultured in a phenol red-free F12 medium containing 0.1% (W/V) BSA, to which angiotensin II (10 μM) was added alone or in combination with losartan (“Los”; 10 μM). The culture medium was collected 24 hours after the addition, and used as a conditioned medium (“0.1% BSA-CM”).
Stromal cells (PrSC) were cultured in a phenol red-free F12 medium containing 10% (V/V) FCS, to which CV (10 μM) or losartan (10 μM) was added. The culture medium was collected 24 hours after the addition, and used as a conditioned medium (“10% FCS-CM”) with no addition of angiotensin II. 10% FCS-CM with no additive was also prepared in the same manner.
3,000,000 PrSC cells were used for each of the above 10-1 and 10-2
PC3 cells (prostate cancer cells) were cultured for 24 hours in a phenol red-free F12 medium supplemented with 0.1% (W/V) BSA. Then the medium was replaced with one of the conditioned media prepared as described above, and the cells were collected 10 minutes later. Total cellular proteins were extracted as described below. Similar protocol was done in parallel for PC-3 cells without using any conditioned medium (“Control”).
The cells were washed twice with an ice-cold phosphate buffer (PBS), and lysed in 200 μL of an ice-cold cell lysis solution (lysis buffer; 20 mM of Tris (pH8.0), 137 mM of NaCl, 10% of glycerol, 0.1% of SDS, 0.5% of Nonidet P-40 (trade name), 100 mM of sodium fluoride, […] of sodium orthovanadate, 1 mM of EGTA, 2 mM of phenylmethylsulfonyl fluoride, […] of leupeptin, and […] of aprotinin). The mixture was centrifuged. Subsequently, the supernatant was collected.
The resulting protein sample was subjected to SDS-PAGE in the routine manner, and the MAPK phosphorylation was determined by Western blotting using an anti-phospho-MAP kinase antibody or an anti-MAP kinase antibody) (both were purchased from Cell Signaling Technology (Beverly, Mass.)) as the detecting antibody.
From the obtained results, the expression levels of pMAPK and MAPK bands were determined using NIH image software. On the basis of the results, the pMAPK/MAPK ratio in each lane was calculated, and then the ratio (“pMAPK ratio”) of the obtained value of each lane to that of the lane 1 (“Control”) was calculated by taking the value of Control as 1.

[4] = system: MAPK phosphorylation in PrSC cells; experiment: MAPK phosphorylation in PrSC cells (Western blotting)
Protocol: Stromal cells (PrSC) were cultured for 24 hours in a phenol red-free F12 medium containing 0.1% (W/V) BSA, to which angiotensin II (10 μM) or TNFα (1 ng/mL) was added each alone or in combination with either CV (10 μM) or losartan (“Los”; 10 μM) by replacing the medium. The cells were collected 10 minutes after the addition, and the total cellular proteins were extracted in the same manner as described in Example 10. Similarly, the cells cultured with no additive and the cells added with either CV or Los alone were processed in parallel. 3,000,000 PrSC cells were used for each sample.
These samples were subjected to Western blotting in the same manner as described in Example 10.

PrSC cells [5] = experiment: Telmisartan: proliferation of EGF- or TNFα-stimulated PrSC cells (Example 7); conditions: 5 days, P<0.01
Protocol: PrSC cells were plated out on a 12-well dish at 25,000 cells per well, and cultured for 5 days in a phenol red-free F12 culture medium supplemented with 0.1% (W/V) BSA containing EGF (10 ng/mL) or TNFα (1 ng/mL), each alone or in combination with telmisartan (50 μM). Then the number of cells was counted. The group with no additive was used as the control group. Each group contained four wells (n=4).

PrSC cells [6] = experiment: Proliferation of PrSC cells stimulated with angiotensin II, TGFβ or EGF (cell count, Examples 1-3); conditions: 5 days
Protocol: A Cell Line Derived from Normal Human Prostatic stromal cells, i.e., PrSC cells, was purchased from Sanko Junyaku Co. Ltd. (Normal Human Prostate Stromal Cells, catalogue number CC-2508), and maintained by subculturing them in a phenol red-free RPMI medium under conditions of 5% CO2 and 37° C.
The PrSC cells (10^4 cells) were placed in a 12-well dish, and cultured in a phenol red-free medium containing 0.1% (W/V) BSA under conditions of 5% CO2 and 37° C. for several days. Then, 1 μM or 10 μM of angiotensin II was added. To some wells, CV (10 μM; hereinafter CV was used at this concentration unless otherwise noted) was added as an AIIR blocker 4 hours before adding angiotensin II. Each group contained four wells (n=4). After culturing the cells at 5% CO2 and 37° C. for 5 days, the number of all cells in each of the wells was counted.
The effect of an AIIR blocker was examined in the same manner as Example 1, except for that 10 ng/mL of TGFβ was used in place of angiotensin II.
The effect of an AIIR blocker was examined in the same manner as Example 1, except for that 10 ng/mL of EGF was used in place of angiotensin II.

PrSC cells [7] = experiment: IL-6 secretion by PrSC cells (CLEIA); conditions: 24 hours
Protocol: PrSC cells prepared in the same manner as Example 1, or F-1 or FT-FB cells prepared as described above were placed in a 6-well dish at 10^5 cells per well, cultured at 5% CO2 and 37° C. for 1 day (24 hours), and stimulated by the addition of TGFβ (1 ng/mL), TNFα (1 ng/mL), EGF (2.5 or 10 ng/mL), or angiotensin II (1 μM or 10 μM) (n=3). CV was added as the AIIR blocker to some wells 4 hours before adding the reagents. The culture media were collected 24 hours after adding the reagents, and the concentrations of IL-6 were determined by the CLEIA method.

PrSC cells [8] = experiment: Olmesartan: proliferation of TNFα-stimulated PrSC cells (Example 6); conditions: TNFα (1 ng/mL) alone; 5 days; P<0.01
Protocol: PrSC cells were plated out on a 12-well dish at 20,000 cells per well, and cultured for 5 days in a phenol red-free F12 culture medium supplemented with 0.1% (W/V) BSA containing TNFα (1 ng/mL) alone or in combination with olmesartan (1 μM). Then the number of cells was counted. The group with no additive was used as the control group. Each group contained four wells (n=4).

F-1 cells = experiment: IL-6 secretion by primary-cultured F-1 cells (CLEIA); conditions: angiotensin II 1 μM and 10 μM alone; 24 hours
Protocol: The primary-cultured stromal cells (F-1 cells) derived from a patient with prostatic hypertrophy were prepared as described below.
Tissues obtained from the patient were placed in a 50 mL centrifuge tube containing 20 mL of a medium (RPMI 1640, GIBCO 11835-030) supplemented with 10% (V/V) FBS (filtron) and mg/mL penicillin/streptomycin (GIBCO 15140-122), and allowed to stand at 4° C. for 1 hour or longer. Subsequently, the tissues were placed in a 10-cm dish, and cut into pieces of about 1 mm square. Blood vessels and the like were removed. At that time, to remove excessive blood (if necessary), the tissues were washed by adding 20 mL of the medium and centrifuging the mixture for 5 minutes at 1,000 rpm, followed by aspiration of the supernatant. […]
PrSC cells prepared in the same manner as Example 1, or F-1 or FT-FB cells prepared as described above were placed in a 6-well dish at 10^5 cells per well, cultured at 5% CO2 and 37° C. for 1 day (24 hours), and stimulated by the addition of TGFβ (1 ng/mL), TNFα (1 ng/mL), EGF (2.5 or 10 ng/mL), or angiotensin II (1 μM or 10 μM) (n=3). […] The culture media were collected 24 hours after adding the reagents, and the concentrations of IL-6 were determined by the CLEIA method.

In the case of `CCCCc1nc(Cl)c(CO)n1Cc1ccc(-c2ccccc2-c2nn[nH]n2)cc1` [losartan], the “cell proliferation, difference from control” value (PrSC cells [1]; losartan 10 μM, P<0.05) is reported as “significant difference”, the “cell proliferation vs control” value (PrSC cells [1]; losartan 0.1, 1.0 and 10 μM) is reported as “dose-dependently suppressed” and the “increase in the number of cells” value (PrSC cells [2]; TNFα (1 ng/mL)+losartan (10 μM), P<0.02) is reported as “significantly suppressed”. The “cell proliferation vs control” value (PrSC cells [2]; losartan (10 μM) alone) was “showed no change”, the “MAPK phosphorylation in PC-3 cells” value ([3]; 0.1% BSA-CM from PrSC with angiotensin II (10 μM)+losartan (10 μM), lane 3 vs lane 2, 10 minutes) was “suppressed” and the “MAPK phosphorylation in PC-3 cells” value ([3]; 10% FCS-CM from PrSC with AIIR blocker 10 μM, no angiotensin II, lanes 5 and 6 vs lane 4, 10 minutes) was “suppressed”. The “MAPK phosphorylation in PrSC cells” value ([4]; AIIR blocker 10 μM added alone, lanes 8 and 9) was “not caused”, the “MAPK phosphorylation in PrSC cells” value ([4]; TNFα (1 ng/mL) in combination with AIIR blocker 10 μM, lanes 6 and 7, 10 minutes) was “suppressed” and the “MAPK phosphorylation in PrSC cells” value ([4]; angiotensin II (10 μM) in combination with AIIR blocker 10 μM, lanes 3 and 4, 10 minutes) was “suppressed”.

`CCCc1nc2c(C)cc(-c3nc4ccccc4n3C)cc2n1Cc1ccc(-c2ccccc2C(=O)O)cc1` [telmisartan, 4′-{[4-methyl-6-(1-methyl-2-benzimidazolyl)-2-propyl-1-benzimidazolyl]methyl}-2-biphenylcarboxylic acid] was tested, and the “increase in the number of cells” value (PrSC cells [5]; EGF (10 ng/mL)+telmisartan (50 μM)) was “significantly suppressed” and the “increase in the number of cells” value (PrSC cells [5]; TNFα (1 ng/mL)+telmisartan (50 μM)) was “significantly suppressed”.

For “EGF: growth factor used to stimulate cells (NSDSECPLSHDGYCLHDGVCMYIEALDKYACNCVVGYIGERCQYRDLKWWELR; Epidermal growth factor; UniProt P01133 971-1023, looked up)”, the “number of cells vs control” value (PrSC cells [6]; EGF 10 ng/mL alone) was “significant increase”, the “IL-6 secretion vs control” value (PrSC cells [7]; EGF 2.5 and 10 ng/mL alone) was “dose-dependent increase” and the “number of cells vs control” value (PrSC cells [5]; EGF (10 ng/mL) alone) was “significantly increased”.

For TGFβ, the “number of cells, increase vs control” value (PrSC cells [6]; TGFβ 10 ng/mL alone) was “more than 2 fold” and the “IL-6 secretion vs control” value (PrSC cells [7]; TGFβ (1 ng/mL) alone) was “significantly promoted”.

In the case of TNFα, the “IL-6 secretion vs control” value (PrSC cells [7]; TNFα (1 ng/mL) alone) is reported as “significantly promoted”, the “number of cells vs control” value (PrSC cells [8]) is reported as “significantly increased” and the “number of cells vs control” value (PrSC cells [5]; TNFα (1 ng/mL) alone) is reported as “significantly increased”. The “number of cells vs control” value (PrSC cells [2]; TNFα (1 ng/mL) alone, P<0.05) was “significantly increased” and the “MAPK phosphorylation in PrSC cells” value ([4]; TNFα (1 ng/mL) alone, lane 5) was “strongly activated”.

For “angiotensin II (DRVYIHPF; Angiotensin-2; UniProt P01019 25-32, looked up) [stimulant added to cells]”, the “numbers of cells vs control” value (PrSC cells [6]; angiotensin II 1 μM or 10 μM alone) was “concentration-dependent increase”, the “IL-6 secretion vs control” value (F-1 cells) was “significant increase in a concentration-dependent manner” and the “MAPK phosphorylation in PC-3 cells” value ([3]; 0.1% BSA-CM from PrSC with angiotensin II (10 μM) alone, lane 2) was “caused”. The “MAPK phosphorylation in PrSC cells” value ([4]; angiotensin II (10 μM) alone, lane 2) was “strongly activated”.
